Data from US10160762B2, “6-alkyl dihydropyrazolopyrimidinone compounds as PDE2 inhibitors” (Merck Sharp & Dohme Corp., priority 2015, dated 2018).
Read-outs that look alike come from different tables or passages of the source.

Molecular target: T1, human PDE2A1 (Homo sapiens, UniProt O00408)
T1 construct: GST; purchased BPS Bioscience (San Diego, Calif.) 60020; host or cells: insect cells
Test: IMAP FP PDE assay, human PDE2A1
Format: biochemical
Outline: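 GST-tagged human PDE2A1 from insect cells; substrate 50 nM FAM-cAMP containing 1000 nM cGMP in Tris pH 7.2/MgCl2/DTT buffer, enzyme giving 20% conversion. 60 min at room temperature, IMAP binding reagent, fluorescence polarization read. Apparent Ki from FP readings using apparent KM 10,000 nM; ten-point 3-fold titrations.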

[1] = Lab A, read-out: Human PDE2 Ki (nM) Lab A
[2] = Lab B, read-out: Human PDE2 Ki (nM) Lab B

T1 sequence (O00408 1-920 isoform O00408-2): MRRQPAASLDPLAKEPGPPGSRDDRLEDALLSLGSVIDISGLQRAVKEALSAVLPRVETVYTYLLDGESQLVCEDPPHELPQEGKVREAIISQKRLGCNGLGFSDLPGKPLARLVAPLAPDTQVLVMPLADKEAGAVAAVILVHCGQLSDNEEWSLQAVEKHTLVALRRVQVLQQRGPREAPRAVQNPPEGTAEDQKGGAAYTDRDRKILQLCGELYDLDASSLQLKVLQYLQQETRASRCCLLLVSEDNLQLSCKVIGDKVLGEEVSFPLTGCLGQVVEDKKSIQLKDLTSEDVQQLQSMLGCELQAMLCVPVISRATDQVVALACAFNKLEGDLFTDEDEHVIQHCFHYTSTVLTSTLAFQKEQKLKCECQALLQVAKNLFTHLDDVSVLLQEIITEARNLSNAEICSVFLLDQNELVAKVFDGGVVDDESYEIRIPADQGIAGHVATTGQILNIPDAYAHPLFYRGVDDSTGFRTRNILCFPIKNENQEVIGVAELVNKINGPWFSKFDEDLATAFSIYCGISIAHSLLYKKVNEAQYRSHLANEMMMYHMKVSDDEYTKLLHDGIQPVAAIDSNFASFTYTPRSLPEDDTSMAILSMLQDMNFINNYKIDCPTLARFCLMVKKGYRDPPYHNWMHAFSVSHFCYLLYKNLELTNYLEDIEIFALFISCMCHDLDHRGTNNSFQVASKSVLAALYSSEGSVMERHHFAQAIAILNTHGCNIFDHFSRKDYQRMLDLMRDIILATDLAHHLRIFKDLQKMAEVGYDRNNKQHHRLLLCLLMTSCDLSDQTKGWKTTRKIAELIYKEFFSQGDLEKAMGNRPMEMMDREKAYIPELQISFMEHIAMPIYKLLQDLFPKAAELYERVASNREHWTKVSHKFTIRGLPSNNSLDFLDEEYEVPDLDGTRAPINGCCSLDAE

Row | Structure (SMILES) | Ki [1] | Ki [2]
1 | Cc1nc2c(c(CO)nn2C(C)c2ccc(C(F)(F)F)c(F)c2)c(=O)[nH]1 (stereo not drawn) [Example 1, 1-(1-(3-Fluoro-4-(trifluoromethyl)phenyl)ethyl)-3-(hydroxymethyl)-6-methyl-1H-pyrazolo[3,4-d]pyrimidin-4(5H)-one] | 1.8 nM | 5.3 nM
2 | Cc1ccc(C(C)n2nc(CO)c3c(=O)[nH]c(C)nc32)cc1 (stereo not drawn) [Example 2, 3-(Hydroxymethyl)-6-methyl-1-(1-p-tolylethyl)-1H-pyrazolo[3,4-d]pyrimidin-4(5H)-one] | 18 nM | 28 nM
3 | Cc1nc2c(c(CO)nn2C(C)c2ccc(C3CC3)cc2)c(=O)[nH]1 (stereo not drawn) [Example 3, 1-(1-(4-Cyclopropylphenl)ethyl)-3-(hydroxymethyl)-6-methyl-1H-pyrazolo[3,4-d]pyrimidin-4(5H)-one] | – | 3.7 nM
4 | Cc1nc2c(c(CO)nn2C(C)c2ccc(OC(F)(F)F)cc2)c(=O)[nH]1 (stereo not drawn) [Example 4] | 4.6 nM | 5.9 nM
5 | Cc1nc2c(c(CO)nn2C(c2ccc(C(F)(F)F)cc2)C(C)C)c(=O)[nH]1 (stereo not drawn) [Example 5, 3-(Hydroxymethyl)-6-methyl-1-(2-methyl-1-(4-(trifluoromethyl)phenyl)propyl)-1H-pyrazolo[3,4-d]pyrimidin-4(5H)-one] | 0.56 nM | 0.74 nM
6 | Cc1nc2c(c(CO)nn2C(c2ccc(C(F)(F)F)cc2)C(F)(F)F)c(=O)[nH]1 (stereo not drawn) [Example 6, 3-(Hydroxymethyl)-6-methyl-1-(2,2,2-trifluoro-1-(4-(trifluoromethyl)phenyl)ethyl)-1H-pyrazolo[3,4-d]pyrimidin-4(5H)-one] | – | 3.1 nM
7 | Cc1nc2c(c(CO)nn2C(C)c2ccc(C(F)(F)F)cc2)c(=O)[nH]1 (stereo not drawn) [Example 7, 3-(Hydroxymethyl)-6-methyl-1-(1-(4-(trifluoromethyl)phenyl)ethyl)-1H-pyrazolo[3,4-d]pyrimidin-4(5H)-one] | 11 nM | 17 nM
8 | Cc1nc2c(c(CO)nn2Cc2ccc(C(F)(F)F)cc2)c(=O)[nH]1 [Example 8, 3-(Hydroxymethyl)-6-methyl-1-[4-(trifluoromethyl)benzyl]-1,5-dihydro-4H-pyrazolo[3,4-d]pyrimidin-4-one] | 100 nM | 105 nM
9 | Cc1nc2c(c(CO)nn2C(C)(C)c2ccc(C(F)(F)F)cc2)c(=O)[nH]1 [Example 9, 3-(Hydroxymethyl)-6-methyl-1-{1-methyl-1-[4-(trifluoromethyl)phenyl]ethyl}-1,5-dihydro-4H-pyrazolo[3,4-d]pyrimidin-4-one] | 27 nM | 60 nM
10 | Cc1nc2c(c(CO)nn2C(c2ccc(C(F)(F)F)cc2)C2CC2)c(=O)[nH]1 (stereo not drawn) [Example 28, 1-(Cyclopropyl(4-(trifluoromethyl)phenyl)methyl)-3-(hydroxymethyl)-6-methyl-1H-pyrazolo[3,4-d]pyrimidin-4(5H)-one] | – | 1.6 nM
11 | Cc1nn(C(C)c2ccc(C(F)(F)F)cc2)c2nc(Cc3cccc(O)c3)[nH]c(=O)c12 (stereo not drawn) [Example 30, 6-(3-Hydroxybenzyl)-3-methyl-1-(1-(4-(trifluoromethyl)phenyl)ethyl)-1H-pyrazolo[3,4-d]pyrimidin-4(5H)-one] | 4.6 nM | 12 nM
12 | Cc1nn(C(C)c2ccc(C(F)(F)F)cc2)c2nc(Cc3ccccc3O)[nH]c(=O)c12 (stereo not drawn) [Example 31, 6-(2-Hydroxybenzyl)-3-methyl-1-(1-(4-(trifluoromethyl)phenyl)ethyl)-1H-pyrazolo[3,4-d]pyrimidin-4(5H)-one] | 43 nM | –
13 | CCOCCc1nc2c(c(C)nn2C(C)c2ccc(C(F)(F)F)cc2)c(=O)[nH]1 (stereo not drawn) [Example 35, 6-(2-Ethoxyethyl)-3-methyl-1-(1-(4-(trifluoromethyl)phenyl)ethyl)-1H-pyrazolo[3,4-d]pyrimidin-4(5H)-one] | 105 nM | –
14 | CCc1nc2c(c(C)nn2C(C)c2ccc(C(F)(F)F)cc2)c(=O)[nH]1 (stereo not drawn) [Example 38, 6-Ethyl-3-methyl-1-{1-[4-(trifluoromethyl)phenyl]ethyl}-1,5-dihydro-4H-pyrazolo[3,4-d]pyrimidin-4-one] | 28 nM | –
15 | Cc1nn(C(C)c2ccc(C(F)(F)F)cc2)c2nc(C3CCC3)[nH]c(=O)c12 (stereo not drawn) [Example 39, 6-Cyclobutyl-3-methyl-1-{1-[4-(trifluoromethyl)phenyl]ethyl}-1,5-dihydro-4H-pyrazolo[3,4-d]pyrimidin-4-one] | 84 nM | –

Other lines, results leading:

Row | Ki [1] | Ki [2] | Structure (SMILES)
16 | 197 nM | – | Cc1nn(C(C)c2ccc(C(F)(F)F)cc2)c2nc(C3CCCC3)[nH]c(=O)c12 (stereo not drawn) [Example 40, 6-Cyclopentyl-3-methyl-1-{1-[4-(trifluoromethyl)phenyl]ethyl}-1,5-dihydro-4H-pyrazolo[3,4-d]pyrimidin-4-one]
17 | 35 nM | – | CCCc1nc2c(c(C)nn2C(C)c2ccc(C(F)(F)F)cc2)c(=O)[nH]1 (stereo not drawn) [Example 41, 3-Methyl-6-propyl-1-{1-[4-(trifluoromethyl)phenyl]ethyl}-1,5-dihydro-4H-pyrazolo[3,4-d]pyrimidin-4-one]
18 | 40 nM | – | Cc1nn(C(C)c2ccc(C(F)(F)F)cc2)c2nc(C3CC3)[nH]c(=O)c12 (stereo not drawn) [Example 42, 6-Cyclopropyl-3-methyl-1-{1-[4-(trifluoromethyl)phenyl]ethyl}-1,5-dihydro-4H-pyrazolo[3,4-d]pyrimidin-4-one]
19 | 132 nM | – | Cc1nn(C(C)c2ccc(C(F)(F)F)cc2)c2nc(C(C)C)[nH]c(=O)c12 (stereo not drawn) [Example 43, 3-Methyl-6-(1-methylethyl)-1-{1-[4-(trifluoromethyl)phenyl]ethyl}-1,5-dihydro-4H-pyrazolo[3,4-d]pyrimidin-4-one]
20 | 2.1 nM | – | COc1ccc(Cc2nc3c(c(C)nn3C(C)c3ccc(C(F)(F)F)cc3)c(=O)[nH]2)cc1OC (stereo not drawn) [Example 44, 6-(3,4-Dimethoxybenzyl)-3-methyl-1-{1-[4-(trifluoromethyl)phenyl]ethyl}-1,5-dihydro-4H-pyrazolo[3,4-d]pyrimidin-4-one]
21 | 22 nM | – | COc1cccc(Cc2nc3c(c(C)nn3C(C)c3ccc(C(F)(F)F)cc3)c(=O)[nH]2)c1 (stereo not drawn) [Example 45, 6-(3-Methoxybenzyl)-3-methyl-1-{1-[4-(trifluoromethyl)phenyl]ethyl}-1,5-dihydro-4H-pyrazolo[3,4-d]pyrimidin-4-one]
22 | 8.6 nM | – | COc1ccc(Cc2nc3c(c(C)nn3C(C)c3ccc(C(F)(F)F)cc3)c(=O)[nH]2)cc1 (stereo not drawn) [Example 46, 6-(4-Methoxybenzyl)-3-methyl-1-{1-[4-(trifluoromethyl)phenyl]ethyl}-1,5-dihydro-4H-pyrazolo[3,4-d]pyrimidin-4-one]
23 | 17 nM | – | COc1cccc(-c2nc3c(c(C)nn3C(C)c3ccc(C(F)(F)F)cc3)c(=O)[nH]2)c1 (stereo not drawn) [Example 47, 6-(3-Methoxyphenyl)-3-methyl-1-{1-[4-(trifluoromethyl)phenyl]ethyl}-1,5-dihydro-4H-pyrazolo[3,4-d]pyrimidin-4-one]
24 | 21 nM | – | COCc1nc2c(c(C)nn2C(C)c2ccc(C(F)(F)F)cc2)c(=O)[nH]1 (stereo not drawn) [Example 48, 6-(Methoxymethyl)-3-methyl-1-{1-[4-(trifluoromethyl)phenyl]ethyl}-1,5-dihydro-4H-pyrazolo[3,4-d]pyrimidin-4-one]
25 | 5.4 nM | – | Cc1nn(C(C)c2ccc(C(F)(F)F)cc2)c2nc(-c3ccco3)[nH]c(=O)c12 (stereo not drawn) [Example 49, 6-Furan-2-yl-3-methyl-1-{1-[4-(trifluoromethyl)phenyl]ethyl}-1,5-dihydro-4H-pyrazolo[3,4-d]pyrimidin-4-one]
